# Measurements: PMC8881610 (Nature Communications, 2022)
# Tests used:
# GLP-1R [1] = biological target: GLP-1R (Homo sapiens, UniProt P43220, D198A); test: cAMP accumulation assay, GLP-1R WT, mutant or modified constructs; type: cell-based; parameters: Flag; expressed in transfected cells; host or cells: HEK293T; conditions: GLP-1R D198A, HEK293T
# Outline: (§1)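 HEK293T cells transiently expressing wild-type, mutant or modified human GLP-1R (HA signal peptide constructs) were used. Cells were stimulated with peptide agonists for 40 min at room temperature in HBSS with 0.5 mM IBMX and 0.1% BSA or casein. cAMP was quantified by LANCE Ultra TR-FRET (620/650 nm).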
# GLP-1R [2] = biological target: GLP-1R (Homo sapiens, UniProt P43220, D198A/K202A/Y145A); test: as above; type: cell-based; parameters: Flag; expressed in transfected cells; host or cells: HEK293T; conditions: GLP-1R Y145A/D198A/K202A, HEK293T
# GLP-1R (Homo sapiens, UniProt P43220, D198A/K202A/Y145A), sequence (P43220 24-463 Y145A/D198A/K202A): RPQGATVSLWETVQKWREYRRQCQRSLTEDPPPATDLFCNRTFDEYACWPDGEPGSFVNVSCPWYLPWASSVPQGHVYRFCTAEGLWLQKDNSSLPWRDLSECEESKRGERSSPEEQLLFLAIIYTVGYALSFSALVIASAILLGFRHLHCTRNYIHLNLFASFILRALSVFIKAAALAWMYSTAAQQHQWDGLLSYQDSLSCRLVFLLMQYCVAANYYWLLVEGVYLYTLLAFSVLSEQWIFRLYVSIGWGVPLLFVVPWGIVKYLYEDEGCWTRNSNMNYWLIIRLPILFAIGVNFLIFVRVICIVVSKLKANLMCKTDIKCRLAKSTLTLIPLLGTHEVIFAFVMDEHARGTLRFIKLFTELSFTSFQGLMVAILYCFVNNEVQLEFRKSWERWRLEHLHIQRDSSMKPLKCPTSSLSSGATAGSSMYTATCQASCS
# Outline: as §1
# GLP-1R [3] = biological target: GLP-1R (Homo sapiens, UniProt P43220, K202A); test: as above; type: cell-based; parameters: Flag; expressed in transfected cells; host or cells: HEK293T; conditions: GLP-1R K202A, HEK293T
# GLP-1R (Homo sapiens, UniProt P43220, K202A), sequence (P43220 24-463 K202A): as the sequence (P43220 24-463 Y145A/D198A/K202A) above, with A122Y, A175D counted along it
# Outline: as §1
# GLP-1R [4] = biological target: GLP-1R (Homo sapiens, UniProt P43220, Y205A); test: as above; type: cell-based; parameters: Flag; expressed in transfected cells; host or cells: HEK293T; conditions: GLP-1R Y205A, HEK293T
# GLP-1R (Homo sapiens, UniProt P43220, Y205A), sequence (P43220 24-463 Y205A): as the sequence (P43220 24-463 Y145A/D198A/K202A) above, with A122Y, A175D, A179K, Y182A counted along it
# Outline: as §1
# GLP-1R [5] = biological target: GLP-1R (Homo sapiens, UniProt P43220, W39A); test: as above; type: cell-based; parameters: Flag; expressed in transfected cells; host or cells: HEK293T; conditions: HEK-293T, GLP-1R W39A; HEK293T
# GLP-1R (Homo sapiens, UniProt P43220, W39A), sequence (P43220 24-463 W39A): as the sequence (P43220 24-463 Y145A/D198A/K202A) above, with W16A, A122Y, A175D, A179K counted along it
# Outline: as §1
# GLP-1R [6] = biological target: GLP-1R (Homo sapiens, UniProt P43220, Q210A); test: as above; type: cell-based; parameters: Flag; expressed in transfected cells; host or cells: HEK293T; conditions: GLP-1R Q210A, HEK293T
# GLP-1R (Homo sapiens, UniProt P43220, Q210A), sequence (P43220 24-463 Q210A): as the sequence (P43220 24-463 Y145A/D198A/K202A) above, with A122Y, A175D, A179K, Q187A counted along it
# Outline: as §1
# GIPR = biological target: T1, GIPR (Homo sapiens, UniProt P48546, R196A); test: Whole-cell binding assay, competition with 125I-GIP1-42; parameters: acylated tirzepatide to the full-length or modified; Flag; expressed in transfected cells; conditions: GIPR R196A, CHO-K1
# T1 sequence (P48546 22-466 R196A): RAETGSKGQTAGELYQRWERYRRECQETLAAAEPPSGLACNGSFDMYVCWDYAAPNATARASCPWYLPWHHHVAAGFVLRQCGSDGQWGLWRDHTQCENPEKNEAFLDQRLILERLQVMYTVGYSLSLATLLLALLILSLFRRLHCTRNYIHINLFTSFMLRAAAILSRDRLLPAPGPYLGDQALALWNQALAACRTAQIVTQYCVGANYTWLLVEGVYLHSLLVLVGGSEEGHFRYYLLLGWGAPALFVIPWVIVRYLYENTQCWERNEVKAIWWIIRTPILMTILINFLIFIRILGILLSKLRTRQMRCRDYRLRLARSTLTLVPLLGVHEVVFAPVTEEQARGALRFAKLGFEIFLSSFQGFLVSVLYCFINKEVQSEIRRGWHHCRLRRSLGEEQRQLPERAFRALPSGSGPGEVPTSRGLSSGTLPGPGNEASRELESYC
# Outline: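 Transiently transfected CHO-K1 cells expressing WT or mutant GIPR were washed in F-12 with 0.1% BSA or 0.1% casein and 33 mM HEPES, then incubated 2 h at 37 °C. After ice-cold PBS washes, cells were lysed and bound radioactivity counted (CPM).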
# [7] = read-out: cAMP pEC50 (converted)
# GLP-1R (Homo sapiens, UniProt P43220, D198A), sequence (P43220 24-463 D198A): as the sequence (P43220 24-463 Y145A/D198A/K202A) above, with A122Y, A179K counted along it
smiles,measurement,setting,value
CCCCCCCCCCCCCCCC(=O)N[C@@H](CCC(=O)NCCCC[C@H](NC(=O)[C@H](CC(=O)O)NC(=O)[C@H](CO)NC(=O)[C@@H](NC(=O)[C@H](Cc1ccccc1)NC(=O)[C@@H](NC(=O)CNC(=O)[C@H](CCC(N)=O)NC(=O)C(C)(C)NC(=O)[C@@H](N)Cc1c[nH]cn1)[C@@H](C)O)[C@@H](C)O)C(=O)N[C@@H](CO)C(=O)N[C@@H](CCCCN)C(=O)N[C@@H](Cc1ccc(O)cc1)C(=O)N[C@@H](CC(C)C)C(=O)N[C@@H](CC(=O)O)C(=O)N[C@@H](CCC(=O)O)C(=O)N[C@@H](CCCNC(=N)N)C(=O)N[C@@H](C)C(=O)N[C@@H](C)C(=O)N[C@@H](CCC(N)=O)C(=O)N[C@@H](CC(=O)O)C(=O)N[C@@H](Cc1ccccc1)C(=O)N[C@H](C(=O)N[C@@H](CCC(N)=O)C(=O)N[C@@H](Cc1c[nH]c2ccccc12)C(=O)N[C@@H](CC(C)C)C(=O)N[C@@H](CC(C)C)C(=O)N[C@@H](CC(=O)O)C(=O)NCC(=O)NCC(=O)N1CCC[C@H]1C(=O)N[C@@H](CO)C(=O)N[C@@H](CO)C(=O)NCC(=O)N[C@@H](C)C(=O)N1CCC[C@H]1C(=O)N1CCC[C@H]1C(=O)N1CCC[C@H]1C(=O)N[C@@H](CO)C(N)=O)C(C)C)C(=O)O [Peptide 20],EC50,GLP-1R [1]; [7],4.47 pM
same,Emax,GLP-1R [1]; HEK-293T,99.9 ± 1.82%
same,EC50,GLP-1R [2]; [7],38.9 pM
same,Emax,GLP-1R [2]; HEK-293T,99.9 ± 1.67%
same,EC50,GLP-1R [3]; [7],2.57 pM
same,Emax,GLP-1R [3]; HEK-293T,100 ± 1.97%
same,EC50,GLP-1R [4]; [7],8.51 pM
same,Emax,GLP-1R [4]; HEK-293T,101 ± 1.08%
same,Emax,GLP-1R [5],100 ± 1.04%
same,EC50,GLP-1R [6]; [7],5.62 pM
same,Emax,GLP-1R [6]; HEK-293T,102 ± 1.27%
same,binding Span,GIPR,71.10 ± 3.42 % WT
same,IC50,GIPR; read-out: binding pIC50 (converted),14500 pM
